{"source": "patent US20090118253A1", "about": "“COMPOSITIONS AND METHODS FOR TREATING DYSFUNCTIONAL UTERINE BLEEDING” (REPROS THERAPEUTICS INC., priority 2007, published 2009)", "key": {"[1]": {"tested_on": "rabbit progesterone receptor (rbPR) and glucocorticoid receptor (rbGR)", "assay": "Receptor-binding assays, ratio of relative binding affinities rbPR/rbGR", "conditions": "ratio of relative binding affinities (RBA = EC50 of standard/EC50 of test compound x 100) for rbPR and rbGR", "experimental": "Certain antiprogestins were tested in receptor-binding assays for their ability to bind rabbit progesterone receptor (rbPR) and glucocorticoid receptor (rbGR). Briefly, cytosol containing PR or GR were prepared in TEGMD buffer (10 mM Tris, pH 7.2, 1.5 mM EDTA, 0.2 mM sodium molybdate, 10% glycerol, 1 mM DTT) from uterus or thymus, respectively, of estradiol-primed immature rabbits. For PR binding, the cytosol was incubated with 6 nM 1,2-[^3H]progesterone (50.0 Ci/mmole) and competitors were added at concentrations from 2 to 100 nM. For binding to GR, the cytosol was incubated with 6 nM 6,7-[^3H]-dexamethasone (40 Ci/mmol) and test compounds were added at concentrations from 20 to 100 nM. After overnight incubation at 4 C, bound and unbound [^3H] steroids were separated by addition of dextran-coated charcoal and centrifugation at 2100×g for 15 min at 4 C. Supernatants containing the [3H]-steroid receptor complexes were decanted into vials containing 4 ml Optifluor (Packard Instrument Co.), vortexed, equilibrated in a liquid scintillation counter for 30 minutes and then counted for 2 minutes. The EC50 (Effective Concentration) for each standard curve and each of the compound curves was determined by entering the counting data into a four parameter sigmoidal computer program (RiaSmart® Immunoassay Data Reduction Program, Packard Instrument Co., Meriden, Conn.). Relative binding affinity (RBA) for each compound was calculated using the following equation: EC50 of standard/EC50 of test compound×100. The standards for the PR and GR assays were unlabeled progesterone and dexamethasone, respectively. The results of these experiments are summarized in Table 1, as a ratio of the relative binding affinities of each compound for the rbPR and rbGR receptors (rbPR/rbGR)."}, "[2]": {"tested_on": "progesterone-induced endometrial glandular proliferation in rabbit uterus", "assay": "anti-McGinty and anti-Clauberg assays in the rabbit uterus", "format": "in vivo", "conditions": "for rabbit Biol. Act.: average of anti-McGinty and anti-Clauberg results relative to CDB-2914 (=1.00)", "excerpt": "Also given in Table 1 are the relative biological activities of the same compounds in the rabbit uterus by the anti-McGinty and anti-Clauberg assays. Compound CDB-2914 (listed at the end of the Table) was used as the control or reference compound (rabbit Biological Activity=1.00) for these experiments because results of experiments using CDB-2914 have been published before (Hild-Petito et al., 1996; Passaro et al., 1997; Reel et al., 1998; Lamer et al., 2000). For the anti-McGinty test, immature female rabbits received a subcutaneous injection of 5 μg estradiol in 10% ethanol/sesame oil daily for 6 consecutive days. On day 7, animals underwent sterile abdominal surgery to ligate a 3-4 cm segment of both uterine horns. The test compound in appropriate solvent was injected intraluminally into the ligated segment of one uterine horn and vehicle alone into the other. A stimulating dose of progesterone (267 μg/day) was administered subcutaneously to each rabbit daily for the next three days to induce endometrial proliferation. All animals were sacrificed at day 10 for removal of the uterus where a segment central to the ligatures was removed and fixed in 10% neutral buffered formalin and submitted for histological processing. Five micron sections stained with hematoxylin and cosin were evaluated microscopically for the degree of endometrial glandular proliferation. The percent inhibition of endometrial proliferation for each rabbit was calculated and the mean of the group of five animals recorded. For the Anti-Clauberg test, immature female rabbits received a subcutaneous injection of 5 μg estradiol in 10% ethanol/sesame oil daily for 6 consecutive days. On day 7, animals received progesterone by subcutaneous injection (160 μg/day) and the experimental compound in appropriate vehicle orally or subcutaneously for five consecutive days. One group of rabbits received progesterone only. Twenty-four hours after the last dose, all animals were sacrificed for removal of the uterus which was cleaned of all fat and connective tissue, weighed to the nearest 0.2 mg and placed in 10% neutral buffered formalin for subsequent histological processing. Five micron sections stained with hematoxylin and eosin were evaluated microscopically for the degree of endometrial glandular proliferation. The percent inhibition of endometrial proliferation at each dose level of the test compound was derived by comparison with progesterone-stimulated animals alone. The data presented in Table 1 (rabbit Biol. Act.) reflects the average of the results obtained for each compound by the anti-McGinty and anti-Clauberg assays relative to CDB-2914."}, "[3]": {"target": "T1, glucocorticoid receptor (rbGR) (Oryctolagus cuniculus, UniProt P59667)", "T1 construct": "cytosol containing PR or GR were prepared in TEGMD buffer; from tissue; host or cells: thymus of estradiol-primed immature rabbits (cytosol)", "T1 sequence (P59667 1-772)": "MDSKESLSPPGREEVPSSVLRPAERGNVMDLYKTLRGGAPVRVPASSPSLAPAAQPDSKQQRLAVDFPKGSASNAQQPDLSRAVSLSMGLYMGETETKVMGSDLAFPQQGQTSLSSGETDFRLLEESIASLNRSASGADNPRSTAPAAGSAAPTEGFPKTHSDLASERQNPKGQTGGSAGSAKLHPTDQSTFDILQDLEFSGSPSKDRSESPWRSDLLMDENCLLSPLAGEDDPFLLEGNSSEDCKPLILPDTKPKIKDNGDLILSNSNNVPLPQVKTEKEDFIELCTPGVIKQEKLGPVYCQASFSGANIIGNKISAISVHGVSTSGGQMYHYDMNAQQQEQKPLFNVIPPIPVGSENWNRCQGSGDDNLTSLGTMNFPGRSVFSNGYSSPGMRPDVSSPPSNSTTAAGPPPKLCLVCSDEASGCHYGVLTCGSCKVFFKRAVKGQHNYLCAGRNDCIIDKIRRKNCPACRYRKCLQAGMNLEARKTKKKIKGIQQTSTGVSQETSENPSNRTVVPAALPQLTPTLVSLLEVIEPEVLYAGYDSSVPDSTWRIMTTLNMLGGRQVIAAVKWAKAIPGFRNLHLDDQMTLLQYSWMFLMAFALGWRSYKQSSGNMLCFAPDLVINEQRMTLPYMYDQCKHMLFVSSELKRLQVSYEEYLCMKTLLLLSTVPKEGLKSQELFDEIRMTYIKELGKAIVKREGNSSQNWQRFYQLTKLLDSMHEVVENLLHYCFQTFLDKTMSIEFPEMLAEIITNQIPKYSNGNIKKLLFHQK", "assay": "Glucocorticoid receptor binding / anti-glucocorticoid receptor activity", "set-up": "species or system rabbit", "experimental": "Certain antiprogestins were tested in receptor-binding assays for their ability to bind rabbit progesterone receptor (rbPR) and glucocorticoid receptor (rbGR). […] For PR binding, the cytosol was incubated with 6 nM 1,2-[^3H]progesterone (50.0 Ci/mmole) and competitors were added at concentrations from 2 to 100 nM. For binding to GR, the cytosol was incubated with 6 nM 6,7-[^3H]-dexamethasone (40 Ci/mmol) and test compounds were added at concentrations from 20 to 100 nM. After overnight incubation at 4 C, bound and unbound [^3H] steroids were separated by addition of dextran-coated charcoal and centrifugation at 2100×g for 15 min at 4 C. Supernatants containing the [3H]-steroid receptor complexes were decanted into vials containing 4 ml Optifluor (Packard Instrument Co.), vortexed, equilibrated in a liquid scintillation counter for 30 minutes and then counted for 2 minutes. […] The standards for the PR and GR assays were unlabeled progesterone and dexamethasone, respectively."}, "[4]": {"assay": "Estrogenic, androgenic, anti-estrogenic and anti-androgenic activities"}, "Serum cortisol in rats": {"assay": "Serum cortisol in rats", "format": "in vivo, rat", "conditions": "10 mg/kg, 21 days of chronic dosing", "experimental": "These higher levels were in the range of 3-4 ug/dl (30-40 ng/ml)."}, "[5]": {"tested_on": "Cynomolgus monkey endometrial epithelium, uterus stroma and breast", "assay": "TUNEL apoptosis in cynomolgus monkey tissue", "format": "in vivo, Cynomolgus monkeys (Macaca fascicularis)", "conditions": "week 36, percent apoptotic cells", "experimental": "Apoptosis was assessed in tissue from the same animals on slides by the terminal deoxynucleotidyl transferase mediated dUTP-biotin nick end labeling (TUNEL) technique."}, "[6]": {"assay": "Urinary progesterone levels (luteal phase) in cynomolgus monkeys", "format": "in vivo, Cynomolgus monkeys (Macaca fascicularis)", "conditions": "n=14 per group; CDB-4124 or RU-486 oral 1.0 mg/kg/day for 36 weeks; Lupron IM once per month", "experimental": "(§1) Cynomolgus monkeys (Macaca fascicularis) (n=14) were treated orally for 36 weeks with CDB-4124 or RU-486 at 1.0 mg/kg/day or with placebo (control). Another group (n=14) received Lupron® IM once per month. Urinary progesterone levels were measured for each animal for one month during the middle of the study (weeks 14-17) and for the last month of the study (weeks 33-36)."}, "[7]": {"tested_on": "Cynomolgus monkey endometrial epithelia, uterus stroma and breast", "assay": "BrdU incorporation, tissue proliferation in cynomolgus monkeys", "format": "in vivo, Cynomolgus monkeys (Macaca fascicularis)", "conditions": "week 36, % cells positive for incorporation of BrdU, three animals per group", "experimental": "At week 36, three animals from each group of Example 6 were injected within 24 hours of sacrifice with the thymidine analog bromodeoxyuridine (BrdU), a marker of proliferating cells and their progeny, to assess tissue proliferation. Full thickness uterine sections were stained and examined microscopically for evidence of proliferation in terms of the % cells positive for incorporation of BrdU: […]"}, "[8]": {"assay": "Serum corticosterone in rats", "conditions": "for differences in serum corticosterone between groups: CDB-4124 10 or 20 mg/kg, RU 486 10 mg/kg, progesterone 10 mg/kg"}, "[9]": {"assay": "Urinary estrogen levels (follicular phase) in cynomolgus monkeys", "format": "in vivo, Cynomolgus monkeys (Macaca fascicularis)", "set-up": "Urinary estrogen, follicular phase, Mean: unit not given here", "conditions": "for Urinary estrogen, follicular phase, Mean: CDB-4124 or RU-486 oral 1.0 mg/kg/day, Lupron IM once per month", "experimental": "as §1, with “33-36). The results are presented below:” for “33-36).”\nUrinary estrogen levels were measured for each animal of Example 6 for one month during the middle of the study (weeks 14-17) and for the last month of the study (weeks 33-36). The follicular phase results are based on 35 baseline ovulating cycles."}}}
{"smiles": "CC(=O)O[C@]1(C(C)=O)CC[C@H]2[C@@H]3CCC4=CC(=O)CCC4=C3[C@@H](c3ccc(N(C)C)cc3)C[C@@]21C", "note": "[CDB-2914, 17α-acetoxy-11β-(4-N,N-dimethylaminophenyl)-19-norpregna-4,9-dien-3,20-dione, reference compound]", "values": [{"measurement": "rbPR/rbGR", "setting": "[1]", "value": 1.07}, {"measurement": "rabbit Biol. Act.", "setting": "[2]", "value": 1.00}, {"measurement": "anti-glucocorticoid receptor activity / glucocorticoid receptor binding", "setting": "[3]", "value": "moderately active"}]}
{"smiles": "CC(=O)OCC(=O)[C@@]1(OC(C)=O)CCC2C3CCC4=CC(=O)CCC4=C3C(c3ccc(N(C)C)cc3)C[C@@]21C", "note": "(stereo partly drawn) [CDB-4059, 21-acetoxy-17α-acetoxy-11β-(4 N,N-dimethylaminophenyl)-19-norpregna-4,9-diene-3,20-dione]", "values": [{"measurement": "rbPR/rbGR", "setting": "[1]", "value": 1.89}, {"measurement": "estrogenic, androgenic, anti-estrogenic, and anti-androgenic activities", "setting": "[4]", "value": "lack estrogenic, androgenic, anti-estrogenic, and anti-androgenic activities"}, {"measurement": "rabbit Biol. Act.", "setting": "[2]", "value": 2.90}, {"measurement": "antiprogestin activity in the rabbit uterus", "setting": "[2]; in comparison to RU 486 and CDB-2914", "value": "strong antiprogestin activity"}, {"measurement": "anti-glucocorticoid receptor activity / glucocorticoid receptor binding", "setting": "[3]", "value": "minimal anti-glucocorticoid receptor activity"}, {"measurement": "levels of serum cortisol versus control group", "setting": "Serum cortisol in rats", "value": "significantly higher"}]}
{"smiles": "CC#C[C@]1(O)CC[C@H]2[C@@H]3CCC4=CC(=O)CCC4=C3[C@@H](c3ccc(N(C)C)cc3)C[C@@]21C", "note": "[RU 486, 11β-[p-(Dimethylamino)phenyl]-17β-hydroxy-17-(1-propynyl)estra-4,9-dien-3-one]", "values": [{"measurement": "Breast Apo %", "setting": "[5]", "value": "1.2 ± 0.6", "unit": "%"}, {"measurement": "Uterus epithelium Apo %", "setting": "[5]", "value": "0.5 ± 0.1", "unit": "%"}, {"measurement": "Uterus stroma Apo %", "setting": "[5]", "value": "0.5 ± 0.1", "unit": "%"}, {"measurement": "Decrease in luteal phase progesterone (number of animals)", "setting": "[6]", "value": 9}, {"measurement": "No decrease in luteal phase progesterone (number of animals)", "setting": "[6]", "value": 5}, {"measurement": "anti-glucocorticoid receptor activity / glucocorticoid receptor binding", "setting": "[3]", "value": "moderately active"}, {"measurement": "Breast Brdu-%", "setting": "[7]", "value": "0.9 ± 0.3", "unit": "%"}, {"measurement": "Uterus epithelium Brdu-%", "setting": "[7]", "value": "12.6 ± 1.8", "unit": "%"}, {"measurement": "Uterus stroma Brdu-%", "setting": "[7]", "value": "3.1 ± 1.0", "unit": "%"}, {"measurement": "differences in serum corticosterone between groups", "setting": "[8]", "value": "No differences"}, {"measurement": "Follicular phase estrogen Lower?", "setting": "[9]; Week 18", "value": "No"}, {"measurement": "Urinary estrogen, follicular phase, Mean", "setting": "[9]; Week 18", "value": 67.4}, {"measurement": "Follicular phase estrogen Lower?", "setting": "[9]; Week 36", "value": "No"}, {"measurement": "Urinary estrogen, follicular phase, Mean", "setting": "[9]; Week 36", "value": 64.8}, {"measurement": "levels of serum cortisol versus control group", "setting": "Serum cortisol in rats", "value": "no significant difference"}]}
{"smiles": "CC(=O)[C@H]1CC[C@H]2[C@@H]3CCC4=CC(=O)CC[C@]4(C)[C@H]3CC[C@]12C", "note": "[progesterone]", "values": [{"measurement": "differences in serum corticosterone between groups", "setting": "[8]", "value": "No differences"}, {"measurement": "levels of corticosterone in animals treated with exogenous progesterone", "setting": "[8]; after 21 days of treatment, p=0.029, not verified at sacrifice", "value": "lowered"}]}
